In series [1] the test system is WSN-Ren luciferase virus (influenza A/WSN/33) in MDCK-HA cells. The experiment in a line: microbe, parasite or virus in culture. The series is classed as cell-based, influenza A/WSN/33 (H1N1).
A short description of series [2]: 1D proton NMR solubility experiment. The series is classed as physicochemical. The settings on record: PBS with 2% DMSO, aqueous buffer, kinetic from dmso stock.
The next series concerns panel of 13 kinases. The experiment in a line: Kinase panel inhibition. The series is classed as biochemical. The settings on record: concentrations up to 5 μM.
Series [3] has as its system WSN-Ren luciferase virus in MDCK-HA cells. Type of series: cell-based, influenza A/WSN/33 (H1N1).
In series [4] the target is recombinant neuraminidase N1 (A/California/04/09) (Influenza A virus (A/California/04/2009(H1N1)), UniProt C3W5S3). The experiment in a line: Fluorescent neuraminidase assay. The series is classed as biochemical, influenza A/California/04/09. The settings on record: serial dilutions from 100 μM to 6.4 nM.
The subject of series [5] is wild type influenza A/WSN/33 virus in A549 cells. The experiment in a line: qRT-PCR of viral NP mRNA, A549 cells infected with wild type WSN virus. The settings on record: 10 μM, 1 μM and 0.1 μM. Type of series: cell-based, influenza A/WSN/33 (H1N1). (Quantitative PCR measures a nucleic acid by following its amplification.)

From paper PMC3769975 (ChemMedChem, 2012) come the findings set out here.

The term EC50 denotes the concentration giving half of the maximal effect. Lower therefore signals higher potency in that assay. In general, solubility refers to the concentration that dissolves in the medium under given conditions. Read a low solubility as a poorly soluble substance.

In brackets after ≈: the same amount, converted by molar mass. Like-named read-outs stand apart in the source and are kept apart here.

`CCC(C)(C)n1nnnc1C(C(C)C)N(CCO)Cc1cc2cc(C)c(C)cc2[nH]c1=O` (stereo not shown) [Compound 7, 3-(((2-hydroxyethyl)(2-methyl-1-(1-tert-pentyl-1H-tetrazole-5-yl)propyl)amino)methyl)-6,7-dimethylquinolin-2(1H)-one] had an EC50 in series [1] (Influenza A virus, WSN) of 45.6 nM. The compound also yielded a solubility in series [2] of 10 to 15 µM (≈ 4.41 to 6.61 µg/mL). The “inhibition of selected kinases” value in the series on panel of 13 kinases was “did not significantly inhibit”. Also, the cytotoxicity profile entry in the series with MDCK-HA cell line is listed as “good cytotoxicity profile”. Further, in series [3], the “viral NP mRNA expression compared to DMSO treated controls” value is recorded as “reduction of the NP mRNA expression”. For the same compound, the “viral replication (NP mRNA) after 26 hour incubation” value in series [3] (10 μM) was “minimal viral replication”. In addition, the activity against neuraminidase entry in series [4] was “ineffective”. In addition, the “viral NP mRNA expression levels” value in series [5] is listed as “reduced NP mRNA expression levels in a dose dependent matter”.
As for `CCC(C)(C)n1nnnc1C(NCc1cc2cc(C)c(C)cc2[nH]c1=O)C(C)C` (stereo not shown) [Compound 23, 6,7-dimethyl-3-(((2-methyl-1-(1-(tert-pentyl)-1H-tetrazole-5-yl)propyl)amino)methyl)quinolin-2(1H)-one], the “anti-influenza activity (in words, SAR discussion)” value in series [1] is “inactivation”. Also, the EC50 in series [1] (Influenza A virus, WSN) was > 100000 nM.
The matching figures for `Cc1cc2cc(CNCCO)c(=O)[nH]c2cc1C` [Compound 6, 3-((2-hydroxyethylamino)methyl)-6,7-dimethylquinolin-2(1H)-one]: “did not elicit any anti-influenza activity” and > 100000 nM.
Taken in the same sequence, the figures for `Cc1cc2cc(CNC(=O)c3ccccc3)c(=O)[nH]c2cc1C` [Compound 24, N-((6,7-dimethyl-2-oxo-1,2-dihydroquinolin-3-yl)methyl)benzamide] were “not sufficient” and > 100000 nM.
Turning to `CCOC(=O)C1=C[C@@H](OC(CC)CC)[C@H](NC(C)=O)[C@@H](N)C1` [oseltamivir phosphate, reference compound], the “potency relative to best compounds of Table 1” value in series [1] is “roughly 100 fold”. Moreover, in series [1] (Influenza A virus, WSN), the EC50 is ~0.5 nM.
In the case of `CCC(C)(C)n1nnnc1C(C(C)C)N(Cc1cc2cc(C)c(C)cc2[nH]c1=O)CC1CCCO1` (stereo not shown) [Compound 25, 6,7-dimethyl-3-(((2-methyl-1-(1-(tert-pentyl)-1H-tetrazol-5-yl)propyl)((tetrahydrofuran-2-yl)methyl)amino)methyl)quinolin-2(1H)-one], the EC50 was 2950 nM in series [1] and ~3000 nM in series [1] (Influenza A virus, WSN). The “anti-influenza activity (in words, SAR discussion)” value in series [1] is on record as “low micromolar range”.
